Test results: US7915268B2, “8-substituted 2-(benzimidazolyl)purine derivatives for immunosuppression” (Wyeth LLC, priority 2006, dated 2011)

What follows are molecules tested against T1, Jak3 (Homo sapiens, UniProt P52333) (assay: Jak3 Kinase Assay (HTRF, GST-Jak3 catalytic domain)). Settings: 1 μM ATP, 60-min incubation, read-out: Jak 3 (Converted).
T1 construct: catalytic domain of Jak3 (508aa to 1124aa); made in house; host or cells: Sf9 insect cells (baculovirus, pFastBac 1)
T1 sequence (P52333 508-1124): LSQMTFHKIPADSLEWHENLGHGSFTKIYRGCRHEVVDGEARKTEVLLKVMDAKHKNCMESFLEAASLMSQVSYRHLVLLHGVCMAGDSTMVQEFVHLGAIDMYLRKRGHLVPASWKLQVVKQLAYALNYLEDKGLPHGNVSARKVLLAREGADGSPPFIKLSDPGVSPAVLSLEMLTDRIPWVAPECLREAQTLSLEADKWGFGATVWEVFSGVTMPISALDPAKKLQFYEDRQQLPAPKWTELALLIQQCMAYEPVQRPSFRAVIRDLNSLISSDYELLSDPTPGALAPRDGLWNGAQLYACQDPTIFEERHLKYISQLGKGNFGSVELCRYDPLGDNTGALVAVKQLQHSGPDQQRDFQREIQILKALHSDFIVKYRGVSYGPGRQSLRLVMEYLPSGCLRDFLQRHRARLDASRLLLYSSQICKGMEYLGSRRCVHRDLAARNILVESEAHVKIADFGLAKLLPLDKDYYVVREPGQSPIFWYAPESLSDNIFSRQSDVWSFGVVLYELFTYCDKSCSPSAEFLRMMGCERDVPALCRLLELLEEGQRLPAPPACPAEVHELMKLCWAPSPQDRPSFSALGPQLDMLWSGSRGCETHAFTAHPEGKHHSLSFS
Format: biochemical
Procedure: Human Jak3 cDNA was amplified by PCR. A fragment encoding the catalytic domain of Jak3 (508aa to 1124aa) was ligated with GST at 5′ end. This fused GST-Jak3 DNA fragment was cloned into the EcoRI site of the donor plasmid pFastBac 1 (Life Technologies #10359-016). The transformation, transposition, and transfection of insect cells (Sf9) were performed according to the manufacture's instructions. The cell lysate containing recombinant GST-Jak3 was used in the kinase assay. Anti-GST antibody (10 μg/ml, Sigma #G1417) was coated onto a 384-well plate at 4° C. overnight. Cell lysate containing GST-Jak3 (1:100 dilution) was added to the anti-GST coated plates, and GST-Jak3 was captured by immobilized anti-GST antibody. Testing compounds and substrate mix (50 mM HEPES, pH 7, 0.5 mM Na3VO4, 25 mM MgCl2, 1 mM DTT, 0.005% BSA, 1 μM ATP, and 4.5 μg/ml biotinyl poly-Glu, Ala, Tyr) were added to the plate to initiate the reaction. After a 60-min incubation, the reaction was stopped by 4 mM EDTA, and phosphorylation of biotinyl poly-Glu, Ala, Tyr was detected using 17 μg/ml Cy5-streptavidin (Amersham, #PA92005) and 2.7 μg/ml Europium-conjugated anti-phosphotyrosine antibody (PerkinElmer #AD0069) using homogeneous time-resolved fluorescence (HTRF) technology.
For `N#Cc1ccc2ncn(-c3ncc4nc(-c5cncnc5)n(C5CCOCC5)c4n3)c2c1` [Example 1], the IC50 was less than 100 nM. For `N#Cc1ccc2ncn(-c3ncc4nc(-c5cncnc5)n([C@@H]5CCOc6ccc(F)cc65)c4n3)c2c1` [Example 2], the IC50 was less than 100 nM. `Cc1ccccc1-c1nc2cnc(-n3cnc4ccc(C#N)cc43)nc2n1C1CCOCC1` [Example 3] showed an IC50 of 100 to 1000 nM. For `COc1cccc(-c2nc3cnc(-n4cnc5ccc(C#N)cc54)nc3n2C2CCOCC2)c1` [Example 4], the IC50 was 100 to 1000 nM. `N#Cc1ccc2ncn(-c3ncc4nc(-c5cccnc5)n([C@@H]5CCOc6c(F)cccc65)c4n3)c2c1` [Example 5] was tested, and the IC50 was less than 100 nM. `CC(=O)Nc1ccc(-c2nc3cnc(-n4cnc5ccc(C#N)cc54)nc3n2C2CCOCC2)cc1` [Example 7] was tested, and the IC50 was less than 100 nM. `N#Cc1ccc2ncn(-c3ncc4nc(-c5cccc(O)c5)n(C5CCOCC5)c4n3)c2c1` [Example 8] gave an IC50 of less than 100 nM. Molecule `N#Cc1ccc2ncn(-c3ncc4nc(-c5cnc(N)nc5)n(C5CCOCC5)c4n3)c2c1` [Example 9] has an IC50 of less than 100 nM. `N#Cc1ccc2ncn(-c3ncc4nc(-c5cnc(O)nc5O)n(C5CCOCC5)c4n3)c2c1` [Example 10] showed an IC50 of less than 100 nM. Work on `N#Cc1ccc2ncn(-c3ncc4nc(-c5cncnc5)n([C@@H]5CCOc6ccccc65)c4n3)c2c1` [Example 11] yielded an IC50 of less than 100 nM. Molecule `Cc1cccc(-c2nc3cnc(-n4cnc5ccc(C#N)cc54)nc3n2C2CCOCC2)c1` [Example 12] has an IC50 of 100 to 1000 nM. `CS(=O)(=O)Nc1cccc(-c2nc3cnc(-n4cnc5ccc(C#N)cc54)nc3n2C2CCOCC2)c1` [Example 14] gave an IC50 of less than 100 nM. Molecule `N#Cc1ccc2ncn(-c3ncc4nc(-c5cncnc5)n([C@@H]5CCOc6c(F)cc(F)cc65)c4n3)c2c1` [Example 15] has an IC50 of less than 100 nM. `N#Cc1ccc2ncn(-c3ncc4nc(-c5ccccc5)n(C5CCOCC5)c4n3)c2c1` [Example 16] showed an IC50 of less than 100 nM. Molecule `CN(C)c1ncc(-c2nc3cnc(-n4cnc5ccc(C#N)cc54)nc3n2C2CCOCC2)cn1` [Example 17] has an IC50 of less than 100 nM. Work on `COc1ccccc1-c1nc2cnc(-n3cnc4ccc(C#N)cc43)nc2n1C1CCOCC1` [Example 18] yielded an IC50 of 100 to 1000 nM. Work on `COc1ccc(-c2nc3cnc(-n4cnc5ccc(C#N)cc54)nc3n2C2CCOCC2)cc1` [Example 19] yielded an IC50 of 100 to 1000 nM. Molecule `CC(C)Sc1nccc(-c2nc3cnc(-n4cnc5ccc(C#N)cc54)nc3n2[C@@H]2CCOc3c(F)ccc(F)c32)n1` [Example 20] has an IC50 of 100 to 1000 nM. `COC1CCN([C@H]2C(C)=Nc3cnc(-n4cnc5ccc(F)cc54)nc32)CC1` [Example 21] was tested, and the IC50 was 100 to 1000 nM. Molecule `CCCc1nc2cnc(-n3cnc4ccc(C#N)cc43)nc2n1C1CCOc2ccc(F)cc21` (stereo not shown) [Example 22] has an IC50 of less than 100 nM. With `CO[C@H]1CC[C@H](n2c(C)nc3cnc(-n4cnc5ccc(C#N)cc54)nc32)CC1` [Example 23] the IC50 was 100 to 1000 nM. Molecule `Cc1nc2cnc(-n3cnc4ccc(C#N)cc43)nc2n1C1CCOc2ccc(F)cc21` (stereo not shown) [Example 24] has an IC50 of less than 100 nM. `Cc1nc2cnc(-n3cnc4ccc(C#N)cc43)nc2n1C1CCOCC1` [Example 25, 3-(8-Methyl-9-(tetrahydro-2H-pyran-4-yl)-9H-purin-2-yl)-3H-benzo[d]imidazole-5-carbonitrile] showed an IC50 of less than 100 nM. With `CO[C@H]1CC[C@H](n2c(C)nc3cnc(-n4cnc5ccc(OC(F)(F)F)cc54)nc32)CC1` [Example 26] the IC50 was 100 to 1000 nM. `COCCC(C)n1c(-c2c[nH]c3ccccc23)nc2cnc(-n3cnc4ccc(F)cc43)nc21` (stereo not shown) [Example 27] was tested, and the IC50 was 100 to 1000 nM. For `Oc1cccc(-c2nc3cnc(-n4cnc5ccc(F)cc54)nc3n2[C@@H]2CCOc3c(F)cccc32)c1` [Example 28], the IC50 was 100 to 1000 nM. `CO[C@H]1CC[C@H](n2c(-c3cncnc3)nc3cnc(-n4cnc5ccc(Cl)cc54)nc32)CC1` [Example 29] was tested, and the IC50 was 100 to 1000 nM. `Fc1ccc2ncn(-c3ncc4nc(-c5cnc[nH]5)n(C5CCOCC5)c4n3)c2c1` [Example 30] was tested, and the IC50 was 100 to 1000 nM. `COC(=O)c1cccc(-c2nc3cnc(-n4cnc5ccc(F)cc54)nc3n2C2CCOCC2)c1` [Example 31] was tested, and the IC50 was 100 to 1000 nM. `Fc1ccc2ncn(-c3ncc4nc(-c5ccncc5)n(C5CCOCC5)c4n3)c2c1` [Example 32] was tested, and the IC50 was less than 100 nM. `Fc1ccc2ncn(-c3ncc4nc(-c5ncc[nH]5)n(C5CCOCC5)c4n3)c2c1` [Example 33, 2-(6-Fluoro-1H-benzo[d]imidazol-1-yl)-8-(1H-imidazol-2-yl)-9-(tetrahydro-2H-pyran-4-yl)-9H-purine] gave an IC50 of 100 to 1000 nM. Molecule `CC(C)(C)c1nc2cnc(-n3cnc4ccc(F)cc43)nc2n1C1CCOCC1` [Example 34] has an IC50 of less than 100 nM. Work on `Fc1ccc2ncn(-c3ncc4nc(-c5ccco5)n(C5CCOCC5)c4n3)c2c1` [Example 35] yielded an IC50 of less than 100 nM. For `Fc1ccc2ncn(-c3ncc4nc(-c5ccc(Br)nc5)n(C5CCOCC5)c4n3)c2c1` [Example 36], the IC50 was less than 100 nM. Molecule `Fc1ccc2ncn(-c3ncc4nc(-c5cccnc5)n(C5CCOCC5)c4n3)c2c1` [Example 37] has an IC50 of less than 100 nM. In the case of `Fc1ccc2ncn(-c3ncc4nc(-c5cncnc5)n(C5CCOCC5)c4n3)c2c1` [Example 38], the IC50 is reported as less than 100 nM. Molecule `Cn1cncc1-c1nc2cnc(-n3cnc4ccc(F)cc43)nc2n1C1CCOCC1` [Example 39] has an IC50 of less than 100 nM. For `Oc1cccc(-c2nc3cnc(-n4cnc5ccc(Cl)cc54)nc3n2C2CCOCC2)c1` [Example 40], the IC50 was less than 100 nM. `Cc1cccc(-c2nc3cnc(-n4cnc5ccc(F)cc54)nc3n2C2CCOCC2)n1` [Example 41] showed an IC50 greater than 1000 nM. Work on `Nc1nccc(-c2nc3cnc(-n4cnc5ccc(Cl)cc54)nc3n2C2CCOCC2)n1` [Example 43] yielded an IC50 of less than 100 nM. `Oc1ccccc1-c1nc2cnc(-n3cnc4ccc(F)cc43)nc2n1C1CCOCC1` [Example 44] was tested, and the IC50 was 100 to 1000 nM. `O=C(O)c1cccc(-c2nc3cnc(-n4cnc5ccc(F)cc54)nc3n2C2CCOCC2)c1` [Example 45] gave an IC50 of less than 100 nM. `Fc1ccc2ncn(-c3ncc4nc(-c5ccc(F)nc5)n(C5CCOCC5)c4n3)c2c1` [Example 46] was tested, and the IC50 was less than 100 nM. Work on `Fc1ccc2ncn(-c3ncc4nc(-c5ccc(Cl)nc5)n(C5CCOCC5)c4n3)c2c1` [Example 47] yielded an IC50 of less than 100 nM. For `Fc1ccc2ncn(-c3ncc4nc(-c5nccs5)n(C5CCOCC5)c4n3)c2c1` [Example 48], the IC50 was 100 to 1000 nM. `Fc1ccc2ncn(-c3ncc4nc(-c5ccncc5)n([C@@H]5CCOc6c(F)cccc65)c4n3)c2c1` [Example 49] was tested, and the IC50 was less than 100 nM. Molecule `Cn1cccc1-c1nc2cnc(-n3cnc4ccc(F)cc43)nc2n1C1CCOCC1` [Example 50] has an IC50 of 100 to 1000 nM. In the case of `Fc1ccc2ncn(-c3ncc4nc(-c5ccc(C(F)(F)F)nc5)n(C5CCOCC5)c4n3)c2c1` [Example 51], the IC50 is reported as less than 100 nM. Molecule `Cc1ccc(-c2nc3cnc(-n4cnc5ccc(F)cc54)nc3n2C2CCOCC2)o1` [Example 52] has an IC50 of 100 to 1000 nM. Molecule `Nc1nccc(-c2nc3cnc(-n4cnc5ccc(F)cc54)nc3n2C2CCOCC2)n1` [Example 53] has an IC50 of less than 100 nM. `Oc1ccc(-c2nc3cnc(-n4cnc5ccc(F)cc54)nc3n2C2CCOCC2)cc1` [Example 54] showed an IC50 of 100 to 1000 nM. In the case of `Fc1ccc2ncn(-c3ncc4nc(-c5cncnc5)n([C@@H]5CCOc6c(F)cccc65)c4n3)c2c1` [Example 55], the IC50 is reported as less than 100 nM. `Fc1ccc2ncn(C3N=c4c(nc(-c5ccnc6ccccc56)n4C4CCOCC4)=CN3)c2c1` (stereo not shown) [Example 56] gave an IC50 greater than 1000 nM. `Fc1ccc2ncn(-c3ncc4nc(-c5cccc(Br)c5)n(C5CCOCC5)c4n3)c2c1` [Example 57] gave an IC50 greater than 1000 nM. Work on `Fc1ccc2ncn(-c3ncc4nc(-c5cccc(OC(F)(F)F)c5)n(C5CCOCC5)c4n3)c2c1` [Example 58] yielded an IC50 greater than 1000 nM.
